Results from the NIST ThermoML archive (doi:10.1016/j.jct.2012.06.031).

Tests used:
[1] = refractive index (Na D-line) (dimensionless); details: 101.33 kPa, Liquid, Standard Abbe refractometry
[2] = 101 kPa, Liquid; for viscosity: Concentric cylinders viscometry; for mass density: Vibrating tube method
[3] = refractive index (Na D-line) (dimensionless); xn = mol fraction of the nth substance listed; details: 101 kPa, Liquid, Standard Abbe refractometry
[4] = xn = mol fraction of the nth substance listed; details: 101 kPa, Liquid; for viscosity: Concentric cylinders viscometry; for mass density: Vibrating tube method

CC(O)CO (stereo unspecified) [1,2-propanediol]
Details	mass density, [2] [kg/m3]	refractive index, [1]	viscosity, [2] [mPa·s]
288.15 K	1040.08	1.43411	81.21
293.15 K	1036.46	1.43247	58.75
298.15 K	1032.8	1.43081	43.44
303.15 K	1029.09	1.42915	32.75
308.15 K	1025.34	1.42751	25.16
313.15 K	1021.55	1.42581	19.65
318.15 K	1017.73	1.42407	15.58
323.15 K	1013.86	1.4223	12.55

OCC(O)CO [glycerol]
Details	mass density, [2] [kg/m3]	refractive index, [1]	viscosity, [2] [mPa·s]
288.15 K	1264.08	1.47552	2298.3
293.15 K	1261.03	1.47427	1425.1
298.15 K	1257.94	1.47301	911.98
303.15 K	1254.83	1.47175	600.83
308.15 K	1251.68	1.47048	406.93
313.15 K	1248.48	1.4692	282.61
318.15 K	1245.24	1.46791	201.03
323.15 K	1242.08	1.46674	147.15

OCC(O)CO [glycerol] + c1ccncc1
x2 = 0
Details	mass density, [4] [kg/m3]	refractive index, [3]	viscosity, [4] [mPa·s]
288.15 K	1264.08	1.47552	2298.3
293.15 K	1261.03	1.47427	1425.1
298.15 K	1257.94	1.47301	911.98
303.15 K	1254.83	1.47175	600.83
308.15 K	1251.68	1.47048	406.93
313.15 K	1248.48	1.4692	282.61
318.15 K	1245.24	1.46791	201.03
323.15 K	1242.08	1.46674	147.15

OCCCO [propan-1,3-diol]
Details	mass density, [2] [kg/m3]	refractive index, [1]	viscosity, [2] [mPa·s]
288.15 K	1056.12	1.44089	66.53
293.15 K	1053.02	1.43947	51.91
298.15 K	1049.91	1.43805	41.04
303.15 K	1046.79	1.43665	32.84
308.15 K	1043.64	1.43526	26.58
313.15 K	1040.49	1.43387	21.74
318.15 K	1037.31	1.43244	17.95
323.15 K	1034.12	1.43099	14.96

CCCO [propan-1-ol]
Details	mass density, [2] [kg/m3]	refractive index, [1]	viscosity, [2] [mPa·s]
288.15 K	807.947	1.3878	2.514
293.15 K	803.963	1.38576	2.208
298.15 K	799.953	1.38369	1.95
303.15 K	795.915	1.38162	1.727
308.15 K	791.84	1.37918	1.542
313.15 K	787.721	1.37695	1.378
318.15 K	783.553	1.37469	1.236
323.15 K	779.334	1.37231	1.124

CCCO [propan-1-ol] + c1ccncc1
x2 = 0
Details	mass density, [4] [kg/m3]	refractive index, [3]	viscosity, [4] [mPa·s]
288.15 K	807.947	1.3878	2.514
293.15 K	803.963	1.38576	2.208
298.15 K	799.953	1.38369	1.95
303.15 K	795.915	1.38162	1.727
308.15 K	791.84	1.37918	1.542
313.15 K	787.721	1.37695	1.378
318.15 K	783.553	1.37469	1.236
323.15 K	779.334	1.37231	1.124

c1ccncc1 [pyridine]
Details	mass density, [2] [kg/m3]	refractive index, [1]	viscosity, [2] [mPa·s]
288.15 K	988.061	1.51184	1.03
293.15 K	983.038	1.509	0.9588
298.15 K	978.006	1.50616	0.8943
303.15 K	972.967	1.50331	0.8355
308.15 K	967.913	1.50048	0.7837
313.15 K	962.849	1.49769	0.7354
318.15 K	957.769	1.49493	0.6912
323.15 K	952.673	1.49219	0.6507

c1ccncc1 [pyridine] + CC(O)CO
x1 = 1
Details	mass density, [4] [kg/m3]	refractive index, [3]	viscosity, [4] [mPa·s]
288.15 K	988.061	1.51184	1.03
293.15 K	983.038	1.509	0.9588
298.15 K	978.006	1.50616	0.8943
303.15 K	972.967	1.50331	0.8355
308.15 K	967.913	1.50048	0.7837
313.15 K	962.849	1.49769	0.7354
318.15 K	957.769	1.49493	0.6912
323.15 K	952.673	1.49219	0.6507

c1ccncc1 [pyridine] + OCCCO
x1 = 1
Details	mass density, [4] [kg/m3]	refractive index, [3]	viscosity, [4] [mPa·s]
288.15 K	988.061	1.51184	1.03
293.15 K	983.038	1.509	0.9588
298.15 K	978.006	1.50616	0.8943
303.15 K	972.967	1.50331	0.8355
308.15 K	967.913	1.50048	0.7837
313.15 K	962.849	1.49769	0.7354
318.15 K	957.769	1.49493	0.6912
323.15 K	952.673	1.49219	0.6507
